What was measured:
[1] = biological target: T1, Peroxisome proliferator-activated receptor alpha (Homo sapiens) (UniProt Q07869); conditions: filed as agonist, dose 10.0 nM
T1 sequence (whole entry): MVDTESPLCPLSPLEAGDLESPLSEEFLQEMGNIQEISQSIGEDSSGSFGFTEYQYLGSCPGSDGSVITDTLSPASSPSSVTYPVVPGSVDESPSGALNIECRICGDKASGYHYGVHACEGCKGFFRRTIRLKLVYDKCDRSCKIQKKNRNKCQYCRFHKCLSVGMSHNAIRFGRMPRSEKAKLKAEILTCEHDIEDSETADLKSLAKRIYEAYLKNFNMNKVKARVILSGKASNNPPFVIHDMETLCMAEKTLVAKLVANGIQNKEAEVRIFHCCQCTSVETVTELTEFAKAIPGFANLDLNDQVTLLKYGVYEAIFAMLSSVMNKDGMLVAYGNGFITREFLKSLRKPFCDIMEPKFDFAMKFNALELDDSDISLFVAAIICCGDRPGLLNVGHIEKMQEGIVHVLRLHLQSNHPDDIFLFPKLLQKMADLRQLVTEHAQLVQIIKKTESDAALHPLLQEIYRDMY
Description: Agonist activity at PPARalpha (unknown origin) assessed as maximal activation at 10 nM relative to GW7647

[2] = biological target: T2, Peroxisome proliferator-activated receptor delta (Homo sapiens) (UniProt Q03181); conditions: filed as agonist, dose 10.0 nM
T2 sequence (whole entry): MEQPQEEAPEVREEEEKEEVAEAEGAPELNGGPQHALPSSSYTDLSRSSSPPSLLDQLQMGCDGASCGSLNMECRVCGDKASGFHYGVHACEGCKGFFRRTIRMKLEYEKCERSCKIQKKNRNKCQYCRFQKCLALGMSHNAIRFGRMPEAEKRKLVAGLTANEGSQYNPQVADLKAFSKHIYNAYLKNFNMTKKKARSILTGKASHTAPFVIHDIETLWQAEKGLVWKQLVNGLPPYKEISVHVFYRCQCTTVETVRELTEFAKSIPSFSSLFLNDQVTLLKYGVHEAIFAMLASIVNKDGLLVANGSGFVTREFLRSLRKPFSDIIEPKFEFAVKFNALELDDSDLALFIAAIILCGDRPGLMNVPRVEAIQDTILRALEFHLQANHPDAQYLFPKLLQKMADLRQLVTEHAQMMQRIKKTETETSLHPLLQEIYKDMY

[3] = biological target: T3, Peroxisome proliferator-activated receptor gamma (Homo sapiens, UniProt P37231); test: Agonist activity at PPARgamma (unknown origin)
T3 sequence (P37231 whole entry): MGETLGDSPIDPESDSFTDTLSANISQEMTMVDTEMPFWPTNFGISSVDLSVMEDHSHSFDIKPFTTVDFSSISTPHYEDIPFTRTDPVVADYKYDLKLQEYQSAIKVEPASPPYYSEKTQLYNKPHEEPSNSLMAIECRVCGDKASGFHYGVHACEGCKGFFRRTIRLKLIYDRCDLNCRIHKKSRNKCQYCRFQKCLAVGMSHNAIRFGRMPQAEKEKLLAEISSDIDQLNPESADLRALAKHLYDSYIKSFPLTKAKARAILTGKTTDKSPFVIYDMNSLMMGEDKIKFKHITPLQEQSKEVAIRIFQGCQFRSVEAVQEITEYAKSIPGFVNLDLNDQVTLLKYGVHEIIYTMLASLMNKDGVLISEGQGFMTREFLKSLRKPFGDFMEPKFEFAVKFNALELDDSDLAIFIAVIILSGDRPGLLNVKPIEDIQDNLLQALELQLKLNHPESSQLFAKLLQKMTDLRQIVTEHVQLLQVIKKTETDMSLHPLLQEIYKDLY

[4] = Intrinsic clearance in human liver microsomes at 1 uM measured upto 60 mins by LC-MS/MS-11 analysis; assay type: ADME, Microsome; conditions: read-out: CLH
[5] = Microsomal stability in human liver microsomes assessed as terminal elimination half life at 1 uM measured upto 60 mins by LC-MS/MS-11 analysis; assay type: ADME, Microsome
[6] = biological target: T4, Peroxisome proliferator-activated receptor delta (Homo sapiens, UniProt Q03181); test: Agonist activity at PPARdelta (unknown origin)
T4 sequence (Q03181 whole entry): T2 sequence (whole entry)

[7] = biological target: T5, Peroxisome proliferator-activated receptor gamma (Homo sapiens) (UniProt P37231); conditions: filed as agonist, dose 10.0 nM
T5 sequence (whole entry): T3 sequence (P37231 whole entry)

[8] = biological target: T2, Peroxisome proliferator-activated receptor delta (Homo sapiens); test: Agonist activity at PPARdelta (unknown origin) assessed as maximal activation at 10 nM relative to control; conditions: filed as agonist
[9] = biological target: T5, Peroxisome proliferator-activated receptor gamma (Homo sapiens); test: Agonist activity at PPARgamma (unknown origin) assessed as maximal activation at 10 nM relative to control; conditions: filed as agonist
[10] = biological target: T1, Peroxisome proliferator-activated receptor alpha (Homo sapiens); test: Agonist activity at PPARalpha (unknown origin) assessed as maximal activation at 10 nM relative to control; conditions: filed as agonist
[11] = biological target: T6, Peroxisome proliferator-activated receptor alpha (Homo sapiens, UniProt Q07869); test: Agonist activity at PPARalpha (unknown origin)
T6 sequence (Q07869 whole entry): T1 sequence (whole entry)

| Emax [1] [%] | Emax [2] [%] | EC50 [3] [nM] | EC50 [6] [nM] | Emax [7] [%] | EC50 [11] [nM] | further results | SMILES |
| --- | --- | --- | --- | --- | --- | --- | --- |
| 78 | 72 | > 5000 | – | – | – | – | Cc1cc(CCCn2ncn(-c3ccc(C(F)(F)F)cc3)c2=O)cc(C)c1OC(C)(C)C(=O)O |
| – | – | – | – | – | – | CLint scaled at 1 µM [4]: 10.3 mL/min/kg; half-life at 1 µM [5]: > 2 h | CC(C)(Oc1c(Cl)cc(Cn2ncn(-c3ccc(C(F)(F)F)cc3)c2=O)cc1Cl)C(=O)O |
| – | – | > 5000 | > 5000 | – | – | – | Cc1cc(Cn2ncn(-c3ccc(S(C)(=O)=O)cc3)c2=O)cc(C)c1OC(C)(C)C(=O)O |
| 99 | 113 | > 5000 | – | – | – | – | CC(C)(Oc1c(F)cc(Cn2ncn(-c3ccc(OC(F)(F)F)cc3)c2=O)cc1F)C(=O)O |
| 114 | 87 | – | – | 87 | – | – | Cc1ccc(-n2cnn(Cc3cc(C)c(OC(C)(C)C(=O)O)c(C)c3)c2=O)cc1 |
| – | – | 865 | – | – | – | – | Cc1cc(Cn2ncn(-c3ccccc3)c2=O)cc(C)c1OC(C)(C)C(=O)O |
| – | – | – | 21.6 | – | – | CLint scaled at 1 µM [4]: 1.45 mL/min/kg; half-life at 1 µM [5]: > 2 h | Cc1cc(Cn2ncn(-c3ccc(Br)cc3)c2=O)cc(C)c1OC(C)(C)C(=O)O |
| – | – | 559 | 2960 | – | 3060 | Emax [8]: 89%; Emax [9]: 119%; Emax [10]: 65% | O=C(O)CCCc1cc2cc(Cl)ccc2n1S(=O)(=O)c1ccc2ncsc2c1 [LANIFIBRANOR] |
| 141 | 97 | – | – | 110 | – | – | Cc1cc(Cn2ncn(-c3ccc(OC(F)(F)F)cc3)c2=O)ccc1OC(C)(C)C(=O)O |
| 102 | 105 | > 5000 | – | – | – | – | CC(C)(Oc1ccc(Cn2ncn(-c3ccc(OC(F)(F)F)cc3)c2=O)cc1F)C(=O)O |
| 162 | 81 | – | 14.7 | 76 | 8.6 | CLint scaled at 1 µM [4]: 3.96 mL/min/kg; half-life at 1 µM [5]: > 2 h | Cc1cc(Cn2ncn(-c3ccc(C(F)(F)F)cc3)c2=O)cc(Cl)c1OC(C)(C)C(=O)O |
| – | – | – | 1.7 | – | – | CLint scaled at 1 µM [4]: 3.6 mL/min/kg; half-life at 1 µM [5]: > 2 h | Cc1cc(Cn2ncn(-c3ccc(C(F)(F)F)cc3)c2=O)cc(C)c1OC(C)(C)C(=O)O |
| 136 | 118 | > 5000 | – | – | – | – | CC(C)(Oc1ccc(Cn2ncn(-c3ccc(C(F)(F)F)cc3)c2=O)cc1F)C(=O)O |
| – | – | > 5000 | – | – | – | – | CC(C)(Oc1ccc(Cn2ncn(-c3ccc(C(F)(F)F)cc3)c2=O)cc1)C(=O)O |
| 120 | 107 | – | – | 114 | – | – | COc1ccc(-n2cnn(Cc3cc(C)c(OC(C)(C)C(=O)O)c(C)c3)c2=O)cc1 |
| 111 | 95 | – | – | 67 | – | – | CC(C)(Oc1ccc(Cn2ncn(-c3ccc(OC(F)(F)F)cc3)c2=O)cc1Cl)C(=O)O |
| 98 | 99 | – | – | 149 | 14.2 | CLint scaled at 1 µM [4]: 4.68 mL/min/kg; half-life at 1 µM [5]: > 2 h | CCc1ccc(-n2cnn(Cc3cc(C)c(OC(C)(C)C(=O)O)c(C)c3)c2=O)cc1 |

| Emax [1] [%] | Emax [2] [%] | EC50 [3] [nM] | EC50 [6] [nM] | Emax [7] [%] | EC50 [11] [nM] | further results | SMILES |
| --- | --- | --- | --- | --- | --- | --- | --- |
| – | – | > 5000 | – | – | – | – | CC(C)(Oc1c(F)cc(Cn2ncn(-c3ccc(C(F)(F)F)cc3)c2=O)cc1F)C(=O)O |
| – | – | > 5000 | > 5000 | – | > 5000 | – | Cc1cc(Cn2ncn(-c3ccc(C#N)cc3)c2=O)cc(C)c1OC(C)(C)C(=O)O |
| 126 | 114 | – | – | 180 | – | – | Cc1cc(Cn2ncn(-c3ccc(Cl)cc3)c2=O)cc(C)c1OC(C)(C)C(=O)O |
| – | – | > 5000 | > 5000 | – | > 5000 | – | Cc1cc(-n2ncn(-c3ccc(C(F)(F)F)cc3)c2=O)cc(C)c1OC(C)(C)C(=O)O |
| – | – | – | – | – | 59.1 | – | CCc1cc(Cn2ncn(-c3ccc(C(F)(F)F)cc3)c2=O)cc(CC)c1OC(C)(C)C(=O)O |
| – | – | – | 5.6 | – | – | CLint scaled at 1 µM [4]: 0.09 mL/min/kg; half-life at 1 µM [5]: > 2 h | Cc1cc(Cn2ncn(-c3ccc(OC(F)(F)F)cc3)c2=O)cc(C(F)(F)F)c1OC(C)(C)C(=O)O |
| – | – | – | 1.4 | – | – | CLint scaled at 1 µM [4]: 2.7 mL/min/kg; half-life at 1 µM [5]: > 2 h | Cc1cc(Cn2ncn(-c3ccc(C(F)(F)F)cc3)c2=O)cc(C(F)(F)F)c1OC(C)(C)C(=O)O |
| 109 | 71 | > 5000 | – | – | – | – | CC(C)(Oc1ccc(Cn2ncn(-c3ccc(OC(F)(F)F)cc3)c2=O)cc1)C(=O)O |
| 129 | 74 | 3090 | – | 125 | 44.4 | – | CCc1cc(Cn2ncn(-c3ccc(OC(F)(F)F)cc3)c2=O)cc(CC)c1OC(C)(C)C(=O)O |
| 69 | 72 | > 5000 | – | – | – | – | Cc1cc(OCn2ncn(-c3ccc(C(F)(F)F)cc3)c2=O)cc(C)c1OC(C)(C)C(=O)O |
| 110 | 129 | > 5000 | 28.5 | – | 7.6 | – | Cc1cc(Cn2ncn(-c3ccc(OC(F)(F)F)cc3)c2=O)cc(Cl)c1OC(C)(C)C(=O)O |
| 130 | 160 | – | – | 70 | – | – | CC(C)(Oc1ccc(Cn2ncn(-c3ccc(OC(F)(F)F)cc3)c2=O)cc1OC(F)(F)F)C(=O)O |
| – | – | – | – | – | 7.5 | – | Cc1cc(Cn2ncn(-c3ccc(C(C)C)cc3)c2=O)cc(C)c1OC(C)(C)C(=O)O |
| 150 | 97 | – | – | 99 | – | – | CC(C)(Oc1ccc(Cn2ncn(-c3ccc(C(F)(F)F)cc3)c2=O)cc1Cl)C(=O)O |
| 153 | 118 | > 5000 | – | – | 6.8 | – | CC(C)(Oc1c(Cl)cc(Cn2ncn(-c3ccc(OC(F)(F)F)cc3)c2=O)cc1Cl)C(=O)O |
| 79 | 81 | > 5000 | – | – | 32.6 | – | CCOc1ccc(-n2cnn(Cc3cc(C)c(OC(C)(C)C(=O)O)c(C)c3)c2=O)cc1 |
| – | – | 3790 | > 5000 | 84 | > 5000 | – | Cc1cc(Cn2ncn(-c3ccccc3C(F)(F)F)c2=O)cc(C)c1OC(C)(C)C(=O)O |

From ChEMBL document CHEMBL5042526, “Design, Synthesis, and Biological Evaluation of Triazolone Derivatives as Potent PPARα/δ Dual Agonists for the Treatment of Nonalcoholic Steatohepatitis” (J Med Chem, 2022)
